For 72 molecules, EC50, IC50 and outcome results are on record in PubChem BioAssay AID179 (DTP/NCI, 2004).

Molecules are shown by their SMILES. Values joined by “and” are separate entries in the source; they are usually repeats but may differ in a detail not shown here. Equal entries are not always repeated. Active and inactive are the calls of the source.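 The calls were made as follows: active = compounds giving half or more protection of infected cells from virus-caused growth loss, again on retest; inactive = the rest.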 Where only a bound is given, the exact number is not on record here.

In the test the test system is CEM cells HIV-1 protection, formazan growth assay. In words: NCI AIDS Antiviral Assay. To be noted: for IC50: measured here: growth of uninfected CEM cells. The method, boiled down: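 Protection of CEM cells against HIV-1 was scored from cell growth (soluble formazan) across five concentrations, with parallel uninfected cells. Lack of protection may reflect toxicity.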

For `O=C1/C(=C\c2ccc([N+](=O)[O-])cc2)Sc2scc(-c3ccc(O)c(O)c3)[n+]21`, the EC50 is more than 200 µM and the half-inhibitory concentration (IC50) came out at 5.25 µM. With `O=S(=O)(O)c1ccc(OCCCCCCCCOc2ccc(S(=O)(=O)O)cc2)cc1`, the EC50 is more than 14.5 µM and the IC50 was more than 14.5 µM.

Regarding `Cc1cn(C2CC(O)C(COC(=O)CCCCCCCCCCBr)O2)c(=O)[nH]c1=O` (stereo not drawn), the EC50 was more than 102 µM and the IC50 was 53.7 µM.

On to `Cc1ccc(N2CC(=O)N3CCCC(c4ccccc4)N3C(=O)C2)cc1` (stereo not drawn), for which the outcome was inactive.

Take `COc1ccc(N2C(=Nc3ccccc3)SC(=N/S(=O)(=O)c3ccccc3)/C2=N\S(=O)(=O)c2ccccc2)cc1`: the EC50 was more than 200 µM and the IC50 is 11.7 µM. As for `CC(=O)/C(=C/n1ccc(=O)[nH]c1=S)C(=O)Nc1ccc([N+](=O)[O-])cc1`, the EC50 is more than 200 µM and the 50% inhibitory concentration (IC50) was 102 µM. The matching figures for `Cc1ccc(NCC(=O)N2CC(=O)Nc3ccccc32)cc1`: more than 123 µM and more than 123 µM. Consider `CCNC1C2(CCCCC2)NC(=O)C12CCCCC2` (stereo not drawn), for which the outcome was inactive. With `COC(=O)C(Cc1ccccc1)NC(=O)C(CNC(=O)OCc1ccccc1)C(=O)OCc1ccccc1` (stereo not drawn), the EC50 was more than 200 µM; the IC50 is > 200 µM and 148 µM. As to `CN(C)/C=N\c1c(C#N)c(CC#N)nn1-c1ccccc1`, the EC50 is more than 200 µM and the IC50 is more than 200 µM.

In the case of `COc1ccccc1/C=C1/NC(=S)NC1=O`, the EC50 was more than 200 µM and the IC50 was more than 200 µM. On to `COc1ccc(-c2nc(-c3cc4c(ccc5ccccc54)oc3=O)cs2)cc1`, for which the EC50 was more than 100 µM and the IC50 was more than 100 µM. On to `Cc1ccccc1C(C#N)C(=O)C(=O)Nc1nc([N+](=O)[O-])cs1` (stereo not drawn), for which the EC50 is more than 7.94 µM and the 50% inhibitory concentration (IC50) is more than 7.94 µM. Consider `C/C=C/CC(S(=O)(=O)c1ccccc1)S(=O)(=O)c1ccccc1`, for which the EC50 is more than 100 µM and the IC50 is more than 100 µM.

As for `O=C1C=CC2C3C(=O)N(c4ccccc4)C(=O)C3C1N2Cc1ccccc1` (stereo not drawn), the EC50 is more than 1.17 µM and the IC50 is more than 1.17 µM. Take `CC(C)(C)OC(=O)NC(C)(C)C(=O)NCCC(=O)O`: the EC50 is more than 200 µM and the IC50 is more than 200 µM. As for `COc1ccc(C([Se]c2ccccc2)C2C(=O)N(O)CC(=O)N2O)cc1` (stereo not drawn), the outcome was inactive. Regarding `COC1/C=C\OC2(C)Oc3c(C)c(O)c4c(O)c(c(/C=N/N(Cc5ccccc5)C56CC7CC(CC(C7)C5)C6)c(O)c4c3C2=O)NC(=O)/C(C)=C\C=C\C(C)C(O)C(C)C(O)C(C)C(OC(C)=O)C1C` (stereo not drawn), the EC50 was more than 200 µM and the IC50 is 6.92 µM.

With `N#CC1Sc2ccccc2-n2cccc21` (stereo not drawn), the outcome was inactive. On to `CC(=O)N(C)c1ccc2c(ccc[n+]2[O-])c1[N+](=O)[O-]`, for which the EC50 was more than 955 µM and the IC50 was more than 955 µM.

Consider `COc1ccc(-c2nc(-c3cnccn3)n(C3OC(CO)C(O)C(O)C3O)n2)cc1` (stereo not drawn), for which the EC50 is more than 200 µM and the IC50 is more than 200 µM. Regarding `O=C(/C=C\c1ccccc1-c1ccccc1)c1ccccc1`, the EC50 was more than 200 µM and the IC50 was more than 200 µM. As to `Cc1cccc(-c2nc3ccc([N+](=O)[O-])cc3c(=O)o2)c1`, the EC50 is more than 200 µM and the IC50 is 30.9 µM. In the case of `CCOC(=O)CN1CCSC1=NC#N`, the outcome was inactive. For `O=C1C(OC(=O)c2ccccc2)=C(c2ccc(O)cc2)C(=O)C(OC(=O)c2ccccc2)=C1c1ccc(O)cc1`, the EC50 is more than 39.8 µM and the concentration for half-maximal inhibition (IC50) was more than 39.8 µM. `O=c1[nH]c2ccccc2c(=O)n1/N=C\c1ccc([N+](=O)[O-])cc1`: the EC50 was more than 200 µM and the IC50 was more than 200 µM. For `CCCNC(=O)c1nc(SC)sc1NC(=O)c1ccccc1`, the EC50 was more than 200 µM and the IC50 is more than 200 µM.

As to `O=c1cc(N=Nc2ccc(Br)cc2)[nH]c(=S)[nH]1`, the EC50 is more than 200 µM and the 50% inhibitory concentration (IC50) turned out to be 1.1 µM.

Take `C=CCOc1ccc(C2c3c([nH][nH]c3=O)CC(C)(O)C2C(=O)OC)cc1OC` (stereo not drawn): the EC50 was more than 200 µM and the IC50 is more than 200 µM. In the case of `CCCCCCCCCCCCCCCCSS(=O)(=O)CCCCCCCC`, the EC50 was more than 74.1 µM and the IC50 is more than 74.1 µM.

For `Cc1cc(Cl)ccc1NC(=O)C1C(=O)N(c2ccc(Cl)cc2C)C(=O)/C1=N\NC(N)=S` (stereo not drawn), the EC50 is more than 11 µM and the IC50 was more than 11 µM. As to `O=C(O)CCC(NC(=O)c1ccc(Nc2nc3ccccc3nc2-c2cccs2)cc1)C(=O)O` (stereo not drawn), the EC50 was more than 525 µM and the IC50 turned out to be 457 µM. In the case of `CC(O)C1OC(n2cnc3c(=O)[nH]c(N)nc32)C(O)C1O` (stereo not drawn), the EC50 was more than 170 µM and the IC50 was more than 170 µM. As for `CS(=O)(=O)CCC(N)P(=O)(O)O` (stereo not drawn), the EC50 is more than 200 µM and the IC50 was more than 200 µM. `COc1ccc2ccccc2c1C1OC(=O)c2ccccc21` (stereo not drawn): the EC50 was more than 46.8 µM and the IC50 was determined as 28.8 µM.

Take `Cc1cn(C2CC(N=[N+]=[N-])C(COC(=O)C3CNC(=O)N3)O2)c(=O)[nH]c1=O` (stereo not drawn): the outcome was active and the IC50 came out at 93.3 µM. For the molecule `O=C(O)C1COCN1C(=O)c1cccnc1SSc1ncccc1C(=O)N1COCC1C(=O)O` (stereo not drawn), the EC50 was more than 200 µM and the IC50 was more than 200 µM. For the molecule `COc1ccc(C(=O)CC(=O)C(=O)Nc2ccc(C)c(C)c2)cc1`, the EC50 was more than 22.4 µM and the half-maximal inhibitory concentration (IC50) was more than 22.4 µM. Regarding `CC(=O)Oc1ccc(/C=C/S(=O)(=O)CS(=O)(=O)/C=C/c2ccc(OC(C)=O)c(OC(C)=O)c2)cc1OC(C)=O`, the EC50 was more than 20 µM and the IC50 was found to be 11 µM. Turning to `CCC(COC(/C=C1/C=CC(=O)O1)COC(=O)c1ccccc1)c1ccccc1` (stereo not drawn), the EC50 is more than 115 µM and the IC50 was determined as 77.6 µM.

For the molecule `O=C1C[C@H]2[C@@H](O1)[C@@H](O)CN1C(=O)c3ccccc3[C@H]21`, the EC50 is more than 200 µM and the IC50 is more than 200 µM. Consider `NC1=NS(=O)(=O)Nc2nc(-c3ccccc3)[nH]c21`, for which the EC50 is more than 20 µM and the IC50 was more than 20 µM. With `Cc1cc(NC(=O)Nc2ccc(F)cc2)no1`, the EC50 is more than 200 µM and the IC50 is more than 200 µM. As for `O=C1N[C@H]2CS(=O)(=O)C[C@H]2N1`, the EC50 is more than 200 µM and the IC50 is more than 200 µM. `C=C1OC(=O)/C(=C/CCCCCCCCCCCCCCCCC)[C@@H]1O`: the EC50 is more than 27.5 µM and the IC50 is more than 27.5 µM. With `COc1ccc(/C=C/C(=O)c2c(-c3ccccc3)nn(C)c(=O)c2N2CCOCC2)cc1`, the EC50 is more than 44.7 µM and the IC50 is more than 44.7 µM. As to `Cc1cc2c(C)nn(Cc3ccc(Cl)cc3Cl)c2c(C#N)c1C`, the EC50 is more than 20.9 µM and the IC50 is more than 20.9 µM.

In the case of `N#CCCC1(CCC#N)S(=O)(=O)OCCOS1(=O)=O`, the EC50 was more than 200 µM and the IC50 stood at 44.7 µM.

Regarding `N#CC(C#N)=CN`, the EC50 was more than 200 µM and the IC50 was more than 200 µM. For `Cn1c(=O)c2nc(NCc3ccccc3)sc2n(C)c1=O`, the EC50 is more than 61.7 µM and the IC50 was more than 61.7 µM. On to `CC1(c2nc3ccccc3[nH]2)CCC(C#N)C(C)(C)O1` (stereo not drawn), for which the EC50 is more than 200 µM and the IC50 is more than 200 µM.

`CCC(c1ccc(N(C)C)cc1)C1NC(=S)NC1=O` (stereo not drawn): the EC50 is more than 200 µM and the IC50 amounted to 25.7 µM. Consider `COc1cc(Nc2nc3ccccc3nc2C(=O)O)cc(OC)c1OC`, for which the EC50 was more than 200 µM and the IC50 is 8.91 µM. As to `COc1cc2c3c(c1OC)-c1cc(O)ccc1C[C@H]3NCC2`, the outcome was inactive.

In the case of `O=c1c2cc([N+](=O)[O-])ccc2n2n1Cc1ccccc1C2`, the EC50 is more than 200 µM and the IC50 was more than 200 µM.

For `Cc1cc(O)c(C=NC(=S)c2ccccc2)c(=O)o1`, the EC50 was more than 200 µM and the IC50 is more than 200 µM. As for `CC12CCC(C)(O1)C1C(=O)N(c3nccs3)C(=O)C12` (stereo not drawn), the EC50 was more than 891 µM and the IC50 is more than 891 µM. For the molecule `CO[C@H]1O[C@@H]2OC3(C)CCC4[C@H](C)CCC([C@H]1C)[C@]42OO3` (stereo partly drawn), the EC50 is more than 200 µM and the half-inhibitory concentration (IC50) came out at 112 µM. Consider `CCN(CC)C(=O)CCn1ccc(=O)[nH]c1=O`, for which the EC50 was more than 1050 µM and the IC50 is more than 1050 µM. In the case of `COc1cc([C@H]2Oc3cc([C@H]4Oc5cc(O)cc(O)c5C(=O)[C@@H]4O)ccc3O[C@@H]2CO)ccc1O`, the EC50 was more than 200 µM and the IC50 turned out to be 66.1 µM. In the case of `c1ccc(-c2nnc3oc(-c4cccs4)nn23)cc1`, the EC50 was more than 100 µM and the IC50 was more than 100 µM. `Cc1ccccc1NC(=O)/C(=N\NC(N)=S)C(C#N)c1ccccc1` (stereo not drawn): the EC50 is more than 186 µM and the IC50 was more than 186 µM. As for `O=C(c1ccccc1)c1nc2c(Cl)ccc(Cl)c2cc1C(Br)Br`, the EC50 was more than 2.19 µM and the IC50 was more than 2.19 µM. For `COc1ccc(-n2c(=O)n(C)c(=O)n2-c2ccc(OC)cc2)cc1`, the EC50 is more than 200 µM and the IC50 was more than 200 µM.

Take `CCOC(=O)C1C=C1C(C)(C)O` (stereo not drawn): the EC50 was more than 151 µM and the IC50 amounted to 135 µM. On to `OCCN1c2ccccc2Sc2ccc(Cl)cc21`, for which the EC50 was more than 200 µM and the concentration for half-maximal inhibition (IC50) was found to be 61.7 µM. With `CCOC(=O)[C@@H]1ON2OC(OC3CCCC3(c3ccccc3)c3ccccc3)C(OC(C)=O)[C@H]3OC(=O)[C@@H]1C32` (stereo partly drawn), the EC50 is more than 200 µM and the IC50 was more than 200 µM. Turning to `CCOC(=O)NC(OCCN(C)C)(C(F)(F)F)C(F)(F)F`, the EC50 is more than 200 µM and the IC50 was more than 200 µM. Take `CN(C)CC1Cc2ccsc2C1=O` (stereo not drawn): the EC50 is more than 155 µM and the IC50 is 2.63 µM.

Consider `COc1ccc2c(c1)OC(C)(C)C1c3cc(O)c(OCc4ccccc4)cc3OC21` (stereo not drawn), for which the EC50 was more than 200 µM and the IC50 worked out at 16.6 µM. `CC(=O)OCC(OC(C)=O)C(OC(C)=O)C(OC(C)=O)C(C=NN(C(C)=O)S(=O)(=O)c1ccc(/C=C2\NC(=O)N(C)C2=O)cc1)OC(C)=O` (stereo not drawn): the EC50 is more than 200 µM; the IC50 was 7.24 µM and 11.2 µM. In the case of `CC(=O)Nc1ccc(Nc2nc(=O)[nH]c(=O)[nH]2)cc1`, the EC50 was more than 200 µM and the IC50 is more than 200 µM.
